# Peptide text beside a SMILES is read from it. * marks the point of attachment. Dicyclohexylacetyl = O=C(C(C1CCCCC1)C1CCCCC1)*; Butanoyl(2,2-Me2) = CCC(C)(C)C(=O)*; Octanoyl = CCCCCCCC(=O)*; X1 = CCCCC(CC)C(=O)*
# System: C. neoformans ATCC 32045
# Assay type: cell-based
# Conditions: ATCC 32045, 72 h
# Procedure: C. neoformans ATCC 32045 cultures were maintained on yeast medium (YM; Difco Laboratories, Detroit, Mich.) agar plates at 4° C. Prior to the assay, the cultures were grown on agar plates and incubated for 72 hrs at 26° C. Two colonies of these newly grown fungal cultures were then inoculated in 5 ml of 2×YM broth, vortexed, and diluted 10-fold in 2×YM broth, for an approximate final assay concentration of 1×105 to 5×10^5 CFU/ml. In 96-well tissue culture plates, fungal suspensions in 2×YM broth were added to the peptides dispensed at concentrations ranging from 1 mg/ml to 1 μg/ml derived from serial twofold dilutions in sterile water. The plates were then incubated for 72 hrs at 26° C. The relative percent growth of the fungi found for each test sample was determined by the optical density at 620 nm (OD620) by using a Titertek Multiskan Plus apparatus. […] The IC50 were calculated by using a sigmoidal curve-fitting software program (Graphpad Prism; ISI Software, San Diego, Calif.).
average IC50 [µg/mL],average MIC [µg/mL],Structure (SMILES)
9,32,"CC[C@H](C)[C@H](NC(=O)[C@H](CCCNC(=N)N)NC(=O)[C@@H](NC(=O)[C@H](CCCNC(=N)N)NC(=O)[C@H](CCCNC(=N)N)NC(=O)[C@H](CCCNC(=N)N)NC(=O)[C@H](Cc1c[nH]c2ccccc12)NC(=O)[C@H](Cc1ccccc1)NC(=O)[C@@H]1CCCN1)[C@@H](C)CC)C(=O)N[C@@H](CCCNC(=N)N)C(=O)N[C@@H](CCCNC(=N)N)C(N)=O [VS1-37, PFWRRRIRIRR-NH2] (H-PFWRRRIRIRR-NH2; N-terminus assumed)"
2,4,"CCCCCCCC(=O)N[C@@H](CCCNC(=N)N)C(=O)N[C@@H](Cc1c[nH]c2ccccc12)C(=O)N[C@@H](CCCCN)C(=O)N[C@@H](CCCNC(=N)N)C(=O)N[C@H](C(=O)N[C@@H](CC(N)=O)C(=O)N[C@@H](CCCNC(=N)N)C(=O)N[C@@H](CCC(N)=O)C(=O)N[C@@H](Cc1c[nH]c2ccccc12)C(=O)N[C@@H](Cc1ccccc1)C(N)=O)[C@@H](C)CC [VS1-45, octanoyl RWKRINRQWF-NH2] (Octanoyl-RWKRINRQWF-NH2)"
8,16,"CC[C@H](C)[C@H](NC(=O)[C@H](CCCNC(=N)N)NC(=O)[C@H](CCCCN)NC(=O)[C@H](Cc1c[nH]c2ccccc12)NC(=O)[C@H](CCCNC(=N)N)NC(=O)C(C)(C)CC)C(=O)N[C@@H](CC(N)=O)C(=O)N[C@@H](CCCNC(=N)N)C(=O)N[C@@H](CCC(N)=O)C(=O)N[C@@H](Cc1c[nH]c2ccccc12)C(=O)N[C@@H](Cc1ccccc1)C(N)=O [VS1-47, 2,2-dimethylbutanoyl RWKRINRQWF-NH2] ({Butanoyl(2,2-Me2)}-RWKRINRQWF-NH2)"
6,32,"CC[C@H](C)[C@H](NC(=O)[C@H](CCC(N)=O)NC(=O)[C@H](CCCNC(=N)N)NC(=O)[C@H](CCCNC(=N)N)NC(=O)[C@H](Cc1c[nH]c2ccccc12)NC(=O)[C@H](Cc1ccccc1)NC(=O)[C@@H]1CCCN1)C(=O)N[C@@H](CCCNC(=N)N)C(=O)N[C@@H](CCCNC(=N)N)C(N)=O [VS1-26, PFWRRQIRR-NH2] (H-PFWRRQIRR-NH2; N-terminus assumed)"
4,16,"CCC(C)(C)C(=O)N[C@@H](Cc1ccccc1)C(=O)N[C@@H](Cc1c[nH]c2ccccc12)C(=O)N[C@@H](CCCNC(=N)N)C(=O)N[C@@H](CCCNC(=N)N)C(=O)N[C@@H](Cc1ccccc1)C(=O)N[C@@H](Cc1c[nH]c2ccccc12)C(=O)N[C@@H](CCCNC(=N)N)C(=O)N[C@@H](CCCNC(=N)N)C(N)=O [VS1-62, 2,2-dimethylbutanoyl FWRRFWRR-NH2] ({Butanoyl(2,2-Me2)}-FWRRFWRR-NH2)"
8,32,"CC[C@H](C)[C@H](NC(=O)[C@H](CCCNC(=N)N)NC(=O)[C@H](C)NC(=O)[C@H](CCCNC(=N)N)NC(=O)[C@H](Cc1c[nH]c2ccccc12)NC(=O)[C@H](Cc1ccccc1)NC(=O)[C@@H]1CCCN1)C(=O)N[C@@H](CCCNC(=N)N)C(=O)N[C@@H](CCCNC(=N)N)C(N)=O [VS1-27, PFWRARIRR-NH2] (H-PFWRARIRR-NH2; N-terminus assumed)"
12,32,"CC[C@H](C)[C@H](NC(=O)[C@H](CCCNC(=N)N)NC(=O)[C@H](CCCNC(=N)N)NC(=O)[C@H](Cc1c[nH]c2ccccc12)NC(=O)[C@@H]1CCCN1)C(=O)N[C@@H](CCCNC(=N)N)C(=O)N[C@@H](CCCNC(=N)N)C(N)=O [VS1-35, PWRRIRR-NH2] (H-PWRRIRR-NH2; N-terminus assumed)"
3,16,"CCCCC(CC)C(=O)N[C@@H](Cc1ccccc1)C(=O)N[C@@H](Cc1c[nH]c2ccccc12)C(=O)N[C@@H](CCCNC(=N)N)C(=O)N[C@H](C(=O)N[C@@H](CCCNC(=N)N)C(=O)N[C@H](C(=O)N[C@@H](CCCNC(=N)N)C(=O)N[C@@H](CCCNC(=N)N)C(N)=O)[C@@H](C)CC)[C@@H](C)CC (some centres unmarked) [VS1-56, 2-ethylhexanoyl FWRIRIRR-NH2] (X1-FWRIRIRR-NH2)"
6,16,"CCCCCCCC(=O)N1CCC[C@H]1C(=O)N[C@@H](Cc1ccccc1)C(=O)N[C@@H](Cc1c[nH]c2ccccc12)C(=O)N[C@@H](CCCNC(=N)N)C(=O)N[C@H](C(=O)N[C@@H](CCCNC(=N)N)C(=O)N[C@H](C(=O)N[C@@H](CCCNC(=N)N)C(=O)N[C@@H](CCCNC(=N)N)C(N)=O)[C@@H](C)CC)[C@@H](C)CC [VS1-50, octanoyl PFWRIRIRR-NH2] (Octanoyl-PFWRIRIRR-NH2)"
10,32,"CC(C)C[C@H](NC(=O)[C@H](CCCCN)NC(=O)[C@H](CCCCN)NC(=O)[C@H](CCCNC(=N)N)NC(=O)[C@H](Cc1c[nH]c2ccccc12)NC(=O)[C@H](Cc1ccccc1)NC(=O)[C@@H]1CCCN1)C(=O)N[C@@H](CCCCN)C(=O)N[C@@H](CCCNC(=N)N)C(N)=O [VS1-30, PFWRKKLKR-NH2] (H-PFWRKKLKR-NH2; N-terminus assumed)"
14,62,"CC[C@H](C)[C@H](NC(=O)[C@H](CCCNC(=N)N)NC(=O)[C@@H](NC(=O)[C@H](CCCNC(=N)N)NC(=O)[C@H](Cc1c[nH]c2ccccc12)NC(=O)[C@H](Cc1ccccc1)NC(=O)C(C1CCCCC1)C1CCCCC1)[C@@H](C)CC)C(=O)N[C@@H](CCCNC(=N)N)C(=O)N[C@@H](CCCNC(=N)N)C(N)=O [VS1-59, dicyclohexylacetyl FWRIRIRR-NH2] (Dicyclohexylacetyl-FWRIRIRR-NH2)"
3,8,"CC[C@H](C)[C@H](NC(=O)[C@H](CCCNC(=N)N)NC(=O)[C@@H](NC(=O)[C@H](CCCNC(=N)N)NC(=O)[C@H](Cc1c[nH]c2ccccc12)NC(=O)[C@H](Cc1ccccc1)NC(=O)[C@H](Cc1ccccc1)NC(=O)[C@@H]1CCCN1)[C@@H](C)CC)C(=O)N[C@@H](CCCNC(=N)N)C(=O)N[C@@H](CCCNC(=N)N)C(N)=O [VS1-24, PFFWRIRIRR-NH2] (H-PFFWRIRIRR-NH2; N-terminus assumed)"
6,32,"N=C(N)NCCC[C@H](NC(=O)[C@H](CCCNC(=N)N)NC(=O)[C@H](Cc1c[nH]c2ccccc12)NC(=O)[C@H](Cc1ccccc1)NC(=O)[C@H](CCCNC(=N)N)NC(=O)[C@H](CCCNC(=N)N)NC(=O)[C@H](Cc1c[nH]c2ccccc12)NC(=O)[C@H](Cc1ccccc1)NC(=O)C(C1CCCCC1)C1CCCCC1)C(N)=O [VS1-64, dicyclohexylacetyl FWRRFWRR-NH2] (Dicyclohexylacetyl-FWRRFWRR-NH2)"
2,8,"CCCCCCCC(=O)N[C@@H](Cc1ccccc1)C(=O)N[C@@H](Cc1c[nH]c2ccccc12)C(=O)N[C@@H](CCC(N)=O)C(=O)N[C@@H](CCCNC(=N)N)C(=O)N[C@@H](CC(N)=O)C(=O)N[C@H](C(=O)N[C@@H](CCCNC(=N)N)C(=O)N[C@@H](CCCCN)C(=O)N[C@@H](Cc1c[nH]c2ccccc12)C(=O)N[C@@H](CCCNC(=N)N)C(N)=O)[C@@H](C)CC [VS1-40, octanoyl FWQRNIRKWR-NH2] (Octanoyl-FWQRNIRKWR-NH2)"
5,32,"CC[C@H](C)[C@H](NC(=O)[C@H](CCCNC(=N)N)NC(=O)[C@H](CCCNC(=N)N)NC(=O)[C@H](CCC(N)=O)NC(=O)[C@H](Cc1c[nH]c2ccccc12)NC(=O)[C@@H](N)Cc1ccccc1)C(=O)N[C@@H](CCCNC(=N)N)C(=O)N[C@@H](CCCCN)C(=O)N[C@@H](Cc1c[nH]c2ccccc12)C(=O)N[C@@H](CCCNC(=N)N)C(N)=O [VS1-17, FWQRRIRKWR-NH2] (H-FWQRRIRKWR-NH2; N-terminus assumed)"
4,8,"CCCCC(CC)C(=O)N[C@@H](CCCNC(=N)N)C(=O)N[C@@H](Cc1c[nH]c2ccccc12)C(=O)N[C@@H](CCCCN)C(=O)N[C@@H](CCCNC(=N)N)C(=O)N[C@H](C(=O)N[C@@H](CC(N)=O)C(=O)N[C@@H](CCCNC(=N)N)C(=O)N[C@@H](CCC(N)=O)C(=O)N[C@@H](Cc1c[nH]c2ccccc12)C(=O)N[C@@H](Cc1ccccc1)C(N)=O)[C@@H](C)CC (some centres unmarked) [VS1-46, 2-ethylhexanoyl RWKRINRQWF-NH2] (X1-RWKRINRQWF-NH2)"
6,16,"CCCCC(CC)C(=O)N[C@@H](Cc1ccccc1)C(=O)N[C@@H](Cc1c[nH]c2ccccc12)C(=O)N[C@@H](CCCNC(=N)N)C(=O)N[C@@H](CCCNC(=N)N)C(=O)N[C@@H](Cc1ccccc1)C(=O)N[C@@H](Cc1c[nH]c2ccccc12)C(=O)N[C@@H](CCCNC(=N)N)C(=O)N[C@@H](CCCNC(=N)N)C(N)=O (some centres unmarked) [VS1-61, 2-ethylhexanoyl FWRRFWRR-NH2] (X1-FWRRFWRR-NH2)"
2,8,"CC[C@H](C)[C@H](NC(=O)[C@H](CCCNC(=N)N)NC(=O)[C@@H](NC(=O)[C@H](CCCNC(=N)N)NC(=O)[C@H](Cc1c[nH]c2ccccc12)NC(=O)[C@@H]1CCCN1)[C@@H](C)CC)C(=O)N[C@@H](CCCNC(=N)N)C(=O)N[C@@H](CCCNC(=N)N)C(N)=O [VS1-34, PWRIRIRR-NH2] (H-PWRIRIRR-NH2; N-terminus assumed)"
4,16,"CCCCCCCC(=O)N[C@@H](Cc1ccccc1)C(=O)N[C@@H](Cc1c[nH]c2ccccc12)C(=O)N[C@@H](CCCNC(=N)N)C(=O)N[C@H](C(=O)N[C@@H](CCCNC(=N)N)C(=O)N[C@H](C(=O)N[C@@H](CCCNC(=N)N)C(=O)N[C@@H](CCCNC(=N)N)C(N)=O)[C@@H](C)CC)[C@@H](C)CC [VS1-55, octanoyl FWRIRIRR-NH2] (Octanoyl-FWRIRIRR-NH2)"
